Literature values in US20070208072A1, “Maleate salt of tegaserod and crystalline forms thereof” (priority 2006, published 2007).

Settings: white to off-white crystalline powder

solubility in ethanol (ethanol): slightly soluble
solubility in water (water): very slightly soluble
Compound: CCCCCNC(=N)N/N=C/c1c[nH]c2ccc(OC)cc12.O=C(O)/C=C\C(=O)O [Tegaserod maleate]
